The nature of data set [1]: Maximum reaction speed by Photo Differential Scanning Calorimetry (Photo-DSC). To be noted: yne monomer with TMPMP and 5 wt.-% photoinitiator mixture (comparatives without thiol); 1 W/cm^2, 50° C., nitrogen. As to the method:
The maximum reaction speed of various monomers was evaluated by means of Photo Differential Scanning Calorimetry (Photo-DSC). 8 mg of the respective test mixtures consisting of yne monomer (as shown in the following table 1) and thiol monomer (trimethylpropane tri(3-mercaptopropionate), TMPMP) as well as 5 wt.-% of a photoinitiator mixture (2-hydroxy-2-methyl-1-phenyl propanone/diphenyl 2,4,6-trimethylbenzoyl phosphane oxide, 50 wt.-%/50 wt.-%) were provided. As comparative test mixtures, acrylate and methacrylate without thiol monomer, but together with 5 wt.-% of the same photoinitiator mixture were provided. The test mixtures were placed in a crucible of aluminium and irradiated with an Omnicure® lamp at an intensity of 1 W/cm^2 at 50° C. under a nitrogen gas atmosphere to thereby cure the test mixtures.
The times (tmax) for reaching the maximum reaction enthalpy indicate the reactivity of the photo-reactive systems. FIG. 1 is a graphical illustration of the test results (tmax) further showing the chemical structural formulas of the tested alkyne monomers and comparative (meth)acryl monomers.
In general terms: In DSC, transitions show as peaks or steps in heat flow.

The subject of data set [2] is L929 mice fibroblast cells. The experiment in a line: Cytotoxicity (residual protein content of the cells). It counts as cell-based. The settings on record: for EC50: concentration at which 50% of the L929 cells are damaged; for EC50 / Concentration limit: incubation 48 h; for Cytotoxicity, in words: L929 cells; for Concentration limit: toxicological concentration limit: reduction of protein content of L929 cells by more than 30% relative to negative control. As to the method:
The cytotoxicity of various monomers was determined by a certified laboratory by means of L929 mice fibroblast cells. As a (toxic) positive control, Triton X 100 was added to L929 cells with a final concentration of 1% (v/v). As a (non-toxic) negative control, a cell culture medium was used.
After completion of the incubation, the residual protein content of the cells was determined. A reduction of the protein content from L929 cells by more than 30%, relative to the negative control, was evaluated as cytotoxic (which corresponds to the toxicological concentration limit). From this, the half maximal effective concentration (EC50), at which 50% of the cells are damaged, can be calculated.

The nature of data set [3]: Measurement of viscosity (cone-and-plate viscosimeter). The format is physicochemical. To be noted: for Viscosity at 25° C.: constant shear rate 300 s^-1, 25° C.; for Viscosity, in words: 25° C. As to the method: For measuring the viscosity, an MC 200 cone-and-plate viscosimeter from Anton Paar GmbH (cone unit MK 22/50 mm, 10) was used. First, the shear rate was varied with a stepped slope and subsequently the viscosity was determined at a constant shear rate (300 s^−1) every 30 seconds. The measurement was carried out at 25° C.

For the compound 1,4-butanediol dibut-1-ynyl carbonate, in data set [1], the “tmax (time for reaching the maximum reaction enthalpy)” value (shortened to “tmax”) is 2.46 s.
For the compound 1,4-butanediol dipropargyl carbonate, in data set [2], it took 550 µM to reach a half-maximal effect (EC50). Moreover, the “tmax” value in data set [1] turned out to be 3.00 s.
For `C=CC(=O)OCCCCOC(=O)C=C` [1,4-butanediol diacrylate, reference compound], the “Viscosity at 25° C.” value in data set [3] was determined as 4.3 mPa*s. Besides, in data set [2], the “Cytotoxicity, in words” value is “particularly cytotoxic” and the Concentration limit was below 160 µM. Further, the “tmax” value in data set [1] was determined as 1.80 s.
`CCC#COCCCCOC#CCC` [1,4-butanediol dibut-1-ynyl ether]: in data set [3], the “Viscosity, in words” value was “relatively low values” and the “Viscosity at 25° C.” value came to 6.1 mPa*s. Also, in data set [2], the “Cytotoxicity, in words” value is on record as “excellently low cytotoxicity” and the Concentration limit is above 1100 µM. Further, the EC50 (in general, the concentration at which the effect is half-maximal) in data set [2] (Mus musculus) is 2000 µM. Besides, in data set [1], the “tmax” value worked out at 2.22 s.
`C=C(C)C(=O)OCCCCOC(=O)C(=C)C` [1,4-butanediol dimethacrylate, reference compound]: the “Viscosity at 25° C.” value in data set [3] is listed as 4.6 mPa*s. Also, in data set [2], the “Cytotoxicity, in words” value is “particularly cytotoxic” and the Concentration limit is below 160 µM. Further, the “tmax” value in data set [1] amounted to 6.72 s.
For `C#CCOCCCCOCC#C` [1,4-butanediol dipropargyl ether], in data set [3], the “Viscosity, in words” value is reported as “relatively low values” and the “Viscosity at 25° C.” value is recorded as 4.7 mPa*s. In data set [2], the “Cytotoxicity, in words” value was “excellently low cytotoxicity” and the Concentration limit is above 1600 µM. Also, a half-maximal effect in data set [2] (Mus musculus) (EC50) was put at 3000 µM. For the same compound, the “tmax” value in data set [1] was 5.12 s.
For the compound `CCC#COCCOC(COCC)OC#CCC` (centres unmarked) [1,4-triethyleneglycol dibut-1-ynyl ether], the “Viscosity at 25° C.” value in data set [3] worked out at 17.2 mPa*s. Besides, the “tmax” value in data set [1] amounted to 2.46 s.
Regarding `C#CCOC(=O)OCC(CC)(COC(=O)OCC#C)COC(=O)OCC#C` [Trimethylolpropane tripropargyl carbonate], the “tmax” value in data set [1] amounted to 1.92 s.

(Values after patent US20170051112A1, “RESIN COMPOSITION SUITABLE FOR PRINTING AND PRINTING METHOD UTILIZING THE SAME” (MONTANUNIVERSITÄT LEOBEN, priority 2014, published 2017).)
